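Step 1: Grow cells in 96-well plates. Step 2: Expose to compound for 48 hours at 5 concentrations. Step 3: Interpolate endpoints linearly; if unreached, use highest concentration. TGI marks complete inhibition of growth.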
Key:
Assay in all cases: NCI anticancer screen, dose series, 48 h
786-0 renal = system: 786-0 renal
A498 renal = system: A498 renal
A549 NSCLC = system: A549 NSCLC
ACHN renal = system: ACHN renal
BT-549 breast = system: BT-549 breast
CAKI-1 renal = system: CAKI-1 renal
CCRF-CEM leukemia = system: CCRF-CEM leukemia
COLO 205 colon = system: COLO 205 colon
DU-145 prostate = system: DU-145 prostate
EKVX NSCLC = system: EKVX NSCLC
HCC-2998 colon = system: HCC-2998 colon
HCT-116 colon = system: HCT-116 colon
HCT-15 colon = system: HCT-15 colon
HL-60(TB) leukemia = system: HL-60(TB) leukemia
HOP-62 NSCLC = system: HOP-62 NSCLC
HOP-92 NSCLC = system: HOP-92 NSCLC
HS 578T breast = system: HS 578T breast
HT29 colon = system: HT29 colon
IGROV1 ovarian = system: IGROV1 ovarian
K-562 leukemia = system: K-562 leukemia
KM12 colon = system: KM12 colon
LOX IMVI melanoma = system: LOX IMVI melanoma
M14 melanoma = system: M14 melanoma
MALME-3M melanoma = system: MALME-3M melanoma
MCF7 breast = system: MCF7 breast
MDA-MB-231 breast = system: MDA-MB-231 breast
MDA-MB-435 = system: MDA-MB-435
MDA-N = system: MDA-N
MOLT-4 leukemia = system: MOLT-4 leukemia
NCI-H226 lung = system: NCI-H226 lung
NCI-H23 lung = system: NCI-H23 lung
NCI-H460 lung = system: NCI-H460 lung
NCI-H522 lung = system: NCI-H522 lung
NCI/ADR-RES ovarian = system: NCI/ADR-RES ovarian
OVCAR-3 ovarian = system: OVCAR-3 ovarian
OVCAR-4 ovarian = system: OVCAR-4 ovarian
OVCAR-5 ovarian = system: OVCAR-5 ovarian
OVCAR-8 ovarian = system: OVCAR-8 ovarian
PC-3 prostate = system: PC-3 prostate
RPMI-8226 leukemia = system: RPMI-8226 leukemia
RXF 393 renal = system: RXF 393 renal
SF-268 CNS = system: SF-268 CNS
SF-295 CNS = system: SF-295 CNS
SF-539 CNS = system: SF-539 CNS
SK-MEL-2 melanoma = system: SK-MEL-2 melanoma
SK-MEL-28 melanoma = system: SK-MEL-28 melanoma
SK-MEL-5 melanoma = system: SK-MEL-5 melanoma
SK-OV-3 ovarian = system: SK-OV-3 ovarian
SN12C renal = system: SN12C renal
SNB-19 CNS = system: SNB-19 CNS
SNB-75 CNS = system: SNB-75 CNS
SW-620 colon = system: SW-620 colon
T-47D breast = system: T-47D breast
TK-10 renal = system: TK-10 renal
U251 CNS = system: U251 CNS
UACC-257 melanoma = system: UACC-257 melanoma
UACC-62 melanoma = system: UACC-62 melanoma
UO-31 renal = system: UO-31 renal
SR leukemia = system: SR leukemia

## C=CCc1[nH]c2c(OCc3ccccc3)cc(N(CC=C)C(C)=O)cc2c1C
786-0 renal
  TGI: 28 µM
A498 renal
  TGI: 25 µM
A549 NSCLC
  TGI: 26.2 µM
ACHN renal
  TGI: 25.3 µM
BT-549 breast
  TGI: 29.3 µM
CAKI-1 renal
  TGI: 29.9 µM
CCRF-CEM leukemia
  TGI: 75.9 µM
COLO 205 colon
  TGI: 30.1 µM
DU-145 prostate
  TGI: 27.8 µM
EKVX NSCLC
  TGI: 21 µM
HCC-2998 colon
  TGI: 28.4 µM
HCT-116 colon
  TGI: 24.8 µM
HCT-15 colon
  TGI: 25.6 µM
HL-60(TB) leukemia
  TGI: 39.9 µM
HOP-62 NSCLC
  TGI: 36.7 µM
HOP-92 NSCLC
  TGI: 25.7 µM
HS 578T breast
  TGI: 30.8 µM
HT29 colon
  TGI: 20.5 µM
IGROV1 ovarian
  TGI: 28 µM
K-562 leukemia
  TGI: > 100 µM
KM12 colon
  TGI: 30.1 µM
LOX IMVI melanoma
  TGI: 25 µM
M14 melanoma
  TGI: 21.8 µM
MALME-3M melanoma
  TGI: 30.4 µM
MCF7 breast
  TGI: 24.9 µM
MDA-MB-231 breast
  TGI: 23.2 µM
MDA-MB-435
  TGI: 33.5 µM
MDA-N
  TGI: 27.9 µM
MOLT-4 leukemia
  TGI: 30.7 µM
NCI-H226 lung
  TGI: 37.2 µM
NCI-H23 lung
  TGI: 26.8 µM
NCI-H460 lung
  TGI: 27.9 µM
NCI-H522 lung
  TGI: 26.5 µM
NCI/ADR-RES ovarian
  TGI: 31 µM
OVCAR-3 ovarian
  TGI: 29.6 µM
OVCAR-4 ovarian
  TGI: 23.6 µM
OVCAR-5 ovarian
  TGI: 27.2 µM
OVCAR-8 ovarian
  TGI: 27.4 µM
PC-3 prostate
  TGI: 20.2 µM
RPMI-8226 leukemia
  TGI: 67.6 µM
RXF 393 renal
  TGI: 26.7 µM
SF-268 CNS
  TGI: 24.6 µM
SF-295 CNS
  TGI: 33.5 µM
SF-539 CNS
  TGI: 32 µM
SK-MEL-2 melanoma
  TGI: 26.1 µM
SK-MEL-28 melanoma
  TGI: 33.5 µM
SK-MEL-5 melanoma
  TGI: 24 µM
SK-OV-3 ovarian
  TGI: 31.9 µM
SN12C renal
  TGI: 32 µM
SNB-19 CNS
  TGI: 25.3 µM
SNB-75 CNS
  TGI: 23.4 µM
SW-620 colon
  TGI: 32.2 µM
T-47D breast
  TGI: 26.4 µM
TK-10 renal
  TGI: 30 µM
U251 CNS
  TGI: 25.3 µM
UACC-257 melanoma
  TGI: 30.6 µM
UACC-62 melanoma
  TGI: 26.9 µM
UO-31 renal
  TGI: 21.3 µM

## N#CC(N)c1ccc(OCCCCCCCCCCOc2ccc(C(N)C#N)cc2)cc1 (configuration not stated)
786-0 renal
  TGI: > 100 µM
A498 renal
  TGI: > 100 µM
A549 NSCLC
  TGI: > 100 µM
ACHN renal
  TGI: > 100 µM
BT-549 breast
  TGI: > 100 µM
CAKI-1 renal
  TGI: > 100 µM
CCRF-CEM leukemia
  TGI: 67.8 µM
COLO 205 colon
  TGI: > 100 µM
DU-145 prostate
  TGI: > 100 µM
EKVX NSCLC
  TGI: > 100 µM
HCC-2998 colon
  TGI: > 100 µM
HCT-116 colon
  TGI: > 100 µM
HCT-15 colon
  TGI: > 100 µM
HL-60(TB) leukemia
  TGI: > 100 µM
HOP-92 NSCLC
  TGI: > 100 µM
HS 578T breast
  TGI: > 100 µM
HT29 colon
  TGI: > 100 µM
IGROV1 ovarian
  TGI: > 100 µM
K-562 leukemia
  TGI: > 100 µM
KM12 colon
  TGI: > 100 µM
LOX IMVI melanoma
  TGI: > 100 µM
M14 melanoma
  TGI: > 100 µM
MALME-3M melanoma
  TGI: > 100 µM
MCF7 breast
  TGI: > 100 µM
MDA-MB-231 breast
  TGI: > 100 µM
MDA-MB-435
  TGI: > 100 µM
MDA-N
  TGI: > 100 µM
MOLT-4 leukemia
  TGI: > 100 µM
NCI-H226 lung
  TGI: > 100 µM
NCI-H23 lung
  TGI: > 100 µM
NCI-H460 lung
  TGI: > 100 µM
NCI-H522 lung
  TGI: > 100 µM
NCI/ADR-RES ovarian
  TGI: > 100 µM
OVCAR-3 ovarian
  TGI: > 100 µM
OVCAR-4 ovarian
  TGI: > 100 µM
OVCAR-5 ovarian
  TGI: > 100 µM
OVCAR-8 ovarian
  TGI: > 100 µM
PC-3 prostate
  TGI: > 100 µM
RXF 393 renal
  TGI: > 100 µM
SF-268 CNS
  TGI: > 100 µM
SF-295 CNS
  TGI: > 100 µM
SF-539 CNS
  TGI: > 100 µM
SK-MEL-2 melanoma
  TGI: > 100 µM
SK-MEL-28 melanoma
  TGI: > 100 µM
SK-MEL-5 melanoma
  TGI: > 100 µM
SK-OV-3 ovarian
  TGI: > 100 µM
SN12C renal
  TGI: > 100 µM
SNB-19 CNS
  TGI: > 100 µM
SW-620 colon
  TGI: > 100 µM
T-47D breast
  TGI: > 100 µM
TK-10 renal
  TGI: > 100 µM
U251 CNS
  TGI: > 100 µM
UACC-257 melanoma
  TGI: > 100 µM
UACC-62 melanoma
  TGI: > 100 µM
UO-31 renal
  TGI: > 100 µM

## O=C(O)CSC(CC1(c2ccc(Cl)cc2)NC(=O)CS1)c1ccc(Cl)cc1 (configuration not stated)
786-0 renal
  TGI: > 100 µM
A498 renal
  TGI: > 100 µM
A549 NSCLC
  TGI: > 100 µM
ACHN renal
  TGI: > 100 µM
BT-549 breast
  TGI: > 100 µM
CAKI-1 renal
  TGI: > 100 µM
CCRF-CEM leukemia
  TGI: > 100 µM
COLO 205 colon
  TGI: > 100 µM
DU-145 prostate
  TGI: > 100 µM
EKVX NSCLC
  TGI: > 100 µM
HCT-116 colon
  TGI: > 100 µM
HCT-15 colon
  TGI: > 100 µM
HL-60(TB) leukemia
  TGI: > 100 µM
HOP-62 NSCLC
  TGI: > 100 µM
HOP-92 NSCLC
  TGI: 87.6 µM
HS 578T breast
  TGI: > 100 µM
HT29 colon
  TGI: > 100 µM
IGROV1 ovarian
  TGI: > 100 µM
K-562 leukemia
  TGI: > 100 µM
KM12 colon
  TGI: > 100 µM
LOX IMVI melanoma
  TGI: > 100 µM
M14 melanoma
  TGI: > 100 µM
MCF7 breast
  TGI: > 100 µM
MDA-MB-231 breast
  TGI: > 100 µM
MDA-MB-435
  TGI: > 100 µM
MDA-N
  TGI: > 100 µM
MOLT-4 leukemia
  TGI: > 100 µM
NCI-H23 lung
  TGI: > 100 µM
NCI-H460 lung
  TGI: > 100 µM
NCI-H522 lung
  TGI: > 100 µM
NCI/ADR-RES ovarian
  TGI: > 100 µM
OVCAR-3 ovarian
  TGI: > 100 µM
OVCAR-4 ovarian
  TGI: > 100 µM
OVCAR-5 ovarian
  TGI: > 100 µM
OVCAR-8 ovarian
  TGI: > 100 µM
PC-3 prostate
  TGI: > 100 µM
RPMI-8226 leukemia
  TGI: > 100 µM
SF-268 CNS
  TGI: > 100 µM
SF-295 CNS
  TGI: > 100 µM
SF-539 CNS
  TGI: > 100 µM
SK-MEL-2 melanoma
  TGI: > 100 µM
SK-MEL-5 melanoma
  TGI: > 100 µM
SK-OV-3 ovarian
  TGI: > 100 µM
SN12C renal
  TGI: > 100 µM
SNB-19 CNS
  TGI: > 100 µM
SNB-75 CNS
  TGI: > 100 µM
SR leukemia
  TGI: > 100 µM
SW-620 colon
  TGI: > 100 µM
T-47D breast
  TGI: > 100 µM
TK-10 renal
  TGI: > 100 µM
U251 CNS
  TGI: > 100 µM
UACC-257 melanoma
  TGI: > 100 µM
UACC-62 melanoma
  TGI: > 100 µM
UO-31 renal
  TGI: > 100 µM
